Reference: publication PMC3992512 (British Journal of Cancer, 2014)
“And” between values parts separate entries of the source, which are not always exact repeats. Identical values can stand only once. “Also recorded” adds a separate entry of the source. Like-named read-outs stand apart in the source and are kept apart here.

Assays:
[1] = pre-clinical studies; ref Calabrese et al, 2004; cited from earlier work
SW620 cells = test: [14C]rucaparib uptake and retention in SW620 cells; format: in vitro ADME, human; conditions: for effect of transport inhibitor on rucaparib uptake: ouabain 30 or 100 μM, cytochalasin B 0.1 or 1 μM, dipyridamole 10 or 100 μM, BCH 1 or 2 mM
MX-1 xenografts [2] = conditions: ref Shen et al, 2013, cited from earlier work
PARP [3] = molecular target: T1, PARP (Homo sapiens, UniProt P09874); test: PARP activity in permeabilised or intact Capan-1 cells with carboxy metabolite; format: cell-based
T1 sequence (P09874 whole entry): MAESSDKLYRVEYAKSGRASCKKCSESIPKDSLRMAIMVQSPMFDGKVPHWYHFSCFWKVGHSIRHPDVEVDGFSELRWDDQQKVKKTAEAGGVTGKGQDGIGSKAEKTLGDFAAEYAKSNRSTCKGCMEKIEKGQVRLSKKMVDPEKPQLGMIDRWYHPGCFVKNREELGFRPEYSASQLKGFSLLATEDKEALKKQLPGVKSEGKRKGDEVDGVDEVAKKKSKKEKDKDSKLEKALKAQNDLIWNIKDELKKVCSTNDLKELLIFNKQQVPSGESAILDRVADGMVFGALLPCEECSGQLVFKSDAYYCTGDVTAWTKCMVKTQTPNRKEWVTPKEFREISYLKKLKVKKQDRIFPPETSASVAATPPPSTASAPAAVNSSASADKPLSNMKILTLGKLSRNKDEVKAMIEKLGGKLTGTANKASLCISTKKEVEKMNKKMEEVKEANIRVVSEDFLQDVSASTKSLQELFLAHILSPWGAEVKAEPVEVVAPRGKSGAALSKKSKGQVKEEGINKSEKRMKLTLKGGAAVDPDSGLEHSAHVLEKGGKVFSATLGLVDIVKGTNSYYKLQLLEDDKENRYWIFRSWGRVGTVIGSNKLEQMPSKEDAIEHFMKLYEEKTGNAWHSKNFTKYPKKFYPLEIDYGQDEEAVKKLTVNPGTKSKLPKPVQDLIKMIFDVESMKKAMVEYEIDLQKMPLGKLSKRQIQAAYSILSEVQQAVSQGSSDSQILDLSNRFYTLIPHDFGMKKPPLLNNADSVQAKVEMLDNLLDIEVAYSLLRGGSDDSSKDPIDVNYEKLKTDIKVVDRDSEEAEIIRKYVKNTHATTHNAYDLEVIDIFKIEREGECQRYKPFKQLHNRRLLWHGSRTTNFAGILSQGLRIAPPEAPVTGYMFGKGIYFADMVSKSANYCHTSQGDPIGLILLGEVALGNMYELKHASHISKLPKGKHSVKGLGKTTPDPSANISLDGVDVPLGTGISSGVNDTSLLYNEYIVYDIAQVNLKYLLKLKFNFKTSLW

[4] = Plasma pharmacokinetics and tissue distribution in Capan-1 tumour-bearing mice; format: in vivo
[5] = tested on: Poly(ADP-ribose) polymerase-1; test: in vivo; format: in vivo, mice; conditions: for PARP activity in tumours, % of control: 7 days
[6] = molecular target: T2, Poly(ADP-ribose) polymerase-1 (Mus musculus, UniProt P11103); test: in vivo; format: in vivo, mice
T2 sequence (P11103 2-1013): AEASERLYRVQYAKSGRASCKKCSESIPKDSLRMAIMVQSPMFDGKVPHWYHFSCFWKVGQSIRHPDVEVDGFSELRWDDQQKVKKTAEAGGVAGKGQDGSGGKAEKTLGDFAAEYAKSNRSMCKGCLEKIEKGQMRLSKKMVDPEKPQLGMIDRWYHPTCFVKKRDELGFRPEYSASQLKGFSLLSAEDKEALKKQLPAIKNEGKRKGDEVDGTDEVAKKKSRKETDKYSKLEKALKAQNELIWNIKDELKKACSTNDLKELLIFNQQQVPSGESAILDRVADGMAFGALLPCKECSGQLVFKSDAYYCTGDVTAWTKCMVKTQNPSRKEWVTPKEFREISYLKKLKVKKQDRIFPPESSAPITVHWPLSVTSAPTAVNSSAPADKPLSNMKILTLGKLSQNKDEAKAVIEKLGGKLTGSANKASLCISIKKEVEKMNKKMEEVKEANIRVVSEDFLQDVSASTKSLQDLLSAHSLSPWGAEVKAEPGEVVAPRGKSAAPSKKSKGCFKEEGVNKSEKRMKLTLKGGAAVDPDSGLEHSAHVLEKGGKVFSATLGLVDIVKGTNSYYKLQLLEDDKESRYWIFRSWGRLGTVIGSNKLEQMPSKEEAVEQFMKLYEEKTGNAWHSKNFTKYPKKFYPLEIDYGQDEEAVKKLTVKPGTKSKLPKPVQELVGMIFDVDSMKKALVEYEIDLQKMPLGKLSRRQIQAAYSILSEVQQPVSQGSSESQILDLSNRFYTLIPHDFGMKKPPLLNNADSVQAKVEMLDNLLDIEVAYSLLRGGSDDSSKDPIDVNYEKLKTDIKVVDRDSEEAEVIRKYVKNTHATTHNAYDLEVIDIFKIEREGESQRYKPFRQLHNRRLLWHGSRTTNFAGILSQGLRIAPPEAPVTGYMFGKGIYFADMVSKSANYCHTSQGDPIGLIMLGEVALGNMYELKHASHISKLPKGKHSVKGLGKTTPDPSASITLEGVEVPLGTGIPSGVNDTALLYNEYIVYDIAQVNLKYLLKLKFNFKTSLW

Capan-1 xenografts [7] = conditions: ref Drew et al, 2011; cited from earlier work
PARP [8] = molecular target: T1, PARP; conditions: patients, after five daily doses; ref Plummer et al, 2008; cited from earlier work
Capan-1 xenografts [9] = test: Efficacy study in mice bearing Capan-1 xenografts; format: in vivo
[10] = tested on: Poly(ADP-ribose) polymerase-1; format: in vivo, mice
[11] = molecular target: T2, Poly(ADP-ribose) polymerase-1; format: in vivo, mice; conditions: 24 h after single dose 150 mg kg−1 p.o. or 50 mg kg−1 i.p.
[12] = [14C]rucaparib uptake and retention in SW620 cells; format: in vitro ADME, human; conditions: human, SW620 cells
[13] = molecular target: Poly(ADP-ribose) polymerase-1 (Homo sapiens, UniProt P09874); test: PARP activity in cancer cell lines after a 30-min pulse of rucaparib; format: cell-based
Sequence of Poly(ADP-ribose) polymerase-1 (Homo sapiens, UniProt P09874) (P09874 whole entry): as the sequence (P09874 whole entry) above

MX-1 xenografts [14] = test: Efficacy study in mice bearing MX-1 xenografts; format: in vivo; conditions: MX-1 tumour-bearing mice
[15] = SW620 cells, 400 nM [14C]rucaparib
[16] = 10 mg kg−1 i.p. daily × five weekly × six
[17] = Capan-1 and MX-1 cells, 30-min pulse with 400 nM

CN(C)Cc1ccc(-c2nc3cccc4c3n2CCNC4=O)cc1 [AG14361]
tumour distribution and retention [1]: distributed well to the tumour and was retained in the tumour after clearance from the plasma

OCCN(CCO)c1nc(N2CCCCC2)c2nc(N(CCO)CCO)nc(N3CCCCC3)c2n1 [dipyridamole]
effect of transport inhibitor on rucaparib uptake (SW620 cells; [15]): neither the nucleoside transport inhibitor, dipyridamole, nor the amino-acid transport inhibitor, BCH, inhibited accumulation

C=C1[C@@H](C)[C@H]2[C@H](Cc3ccccc3)NC(=O)[C@]23OC(=O)/C=C/[C@H](O)CCC[C@@H](C)C/C=C/[C@H]3[C@@H]1O [cytochalasin B]
effect of transport inhibitor on rucaparib uptake (SW620 cells; [15]): no effect on uptake

Cn1ncnc1[C@H]1c2n[nH]c(=O)c3cc(F)cc(c23)N[C@@H]1c1ccc(F)cc1 [BMN 673]
efficacy against MX-1 xenografts (MX-1 xenografts [2]; once or twice daily administration): regressions of MX-1 xenografts

C[C@@H]1O[C@@H](O[C@H]2C[C@@H](O)[C@]3(CO)[C@H]4[C@H](O)C[C@]5(C)[C@@H](C6=CC(=O)OC6)CC[C@]5(O)[C@@H]4CC[C@]3(O)C2)[C@H](O)[C@H](O)[C@H]1O [Ouabain]
effect of transport inhibitor on rucaparib uptake (SW620 cells; [15]): only a very modest effect

O=C(O)c1ccc(-c2[nH]c3cc(F)cc4c3c2CCNC4=O)cc1 [4-(8-fluoro-6-oxo-3,4,5,6-tetrahydro-1H-azepino[5,4,3-cd]indol-2-yl)benzoic acid]
PARP inhibition after pre-incubation of intact cells (PARP [3]): did not result in PARP inhibition
metabolite concentration relative to parent drug in plasma ([4]; after single dose of rucaparib): higher concentrations than the parent drug in the plasma
metabolite concentration relative to parent drug in tumour ([4]; after single dose of rucaparib): lower in the tumour

NC1(C(=O)O)CC2CCC1C2 (stereo not shown) [BCH]
effect of transport inhibitor on rucaparib uptake (SW620 cells; [15]): neither the nucleoside transport inhibitor, dipyridamole, nor the amino-acid transport inhibitor, BCH, inhibited accumulation

CNCc1ccc(-c2[nH]c3cc(F)cc4c3c2CCNC4=O)cc1 [rucaparib]
PARP inhibition in Capan-1 tumours ([5]; 7 days following single dose 10 mg kg−1 i.p.): 70%
PARP inhibition in Capan-1 tumours ([5]; 7 days following single dose 150 mg kg−1 p.o.): 90%
PARP activity in tumours, % of control ([5]; single dose 50 mg kg−1 p.o.): ~10%
PARP activity in tumours, % of control ([5]; single dose 150 mg kg−1 p.o.): ~10%
PARP activity in tumours, % of baseline ([5]; after 48 h, 10 mg kg−1 i.p.): ~30%
PARP activity in tumours, % of baseline ([5]; between 30 min and 24 h, all doses and routes (10 mg kg−1 i.p.; 50, 100, 150 mg kg−1 p.o.)): < 20%
PARP activity in PBMCs, % of control ([6]; 24 h after single dose 10 mg kg−1 i.p.): > 35%
inhibition at 10 mg/kg ([6]; CAPAN-1, mouse, ip, read-out: initial PARP inhibition in brain): ~50%
reduction in brain PARP activity ([6]; oral dosage, 4 h): > 60%
brain PARP activity after recovery, % of baseline ([6]; oral dosage, after 4 h up to 7 days): 70–80%
PARP activity in PBMCs up to 6 h post-administration ([6]; single dose 10 mg kg−1 i.p.): profound suppression
efficacy of daily for 5 days every week for 6 weeks vs once a day for 10 days (Capan-1 xenografts [7]): more effective
PARP activity in peripheral blood mononuclear cells (PARP [8]): still suppressed 3 days after the final of five daily doses
partial regressions (Capan-1 xenografts [9]; [16]): two persistent partial regressions
time to quadruple in volume (RTV4) (Capan-1 xenografts [9]; [16]): not reached during the 50-day trial
Complete regressions (Capan-1 xenografts [9]; 10 mg kg−1 i.p., d × 5 w × 6): 1/10
Mice remaining at day 40 (Capan-1 xenografts [9]; 10 mg kg−1 i.p., d × 5 w × 6): 6
Complete regressions (Capan-1 xenografts [9]; 10 mg kg−1 i.p., d × 5 w × 6, listed as Rucaparib): one complete tumour regression
Complete regressions (Capan-1 xenografts [9]; 50 mg kg−1 p.o., d × 5 w × 6): 0/10
Mice remaining at day 40 (Capan-1 xenografts [9]; 50 mg kg−1 p.o., d × 5 w × 6): 2
effect on tumour growth (Capan-1 xenografts [9]; 150 mg kg−1 p.o. daily × five weekly × six): equivalent effect on tumour growth to 10 mg kg^−1 i.p.
antitumour effect of once weekly schedule (Capan-1 xenografts [9]; 150 mg kg−1 p.o. once a week for 6 weeks, compared with other schedules): as effective as; also recorded: greatest antitumour effect
Complete regressions (Capan-1 xenografts [9]; 150 mg kg−1 p.o., 1 × w × 6): three complete regressions and 3/10
Mice remaining at day 40 (Capan-1 xenografts [9]; 150 mg kg−1 p.o., 1 × w × 6): 7
Complete regressions (Capan-1 xenografts [9]; 150 mg kg−1 p.o., 3 × w × 6): 1/10
Mice remaining at day 40 (Capan-1 xenografts [9]; 150 mg kg−1 p.o., 3 × w × 6): 5
Complete regressions (Capan-1 xenografts [9]; 150 mg kg−1 p.o., d × 5 w × 6): 1/10
Mice remaining at day 40 (Capan-1 xenografts [9]; 150 mg kg−1 p.o., d × 5 w × 6): 5
Complete regressions (Capan-1 xenografts [9]; 150 mg kg−1 p.o., dx5 every 3w): 1/10
Mice remaining at day 40 (Capan-1 xenografts [9]; 150 mg kg−1 p.o., dx5 every 3w): 5
weight loss (Capan-1 xenografts [9]; Capan-1 tumour-bearing mice, any of the schedules): no significant weight loss
effect on tumour growth (Capan-1 xenografts [9]; other dosing schedules incl. 150 mg kg−1 p.o. daily for five days every 3 weeks): only marginal effect on tumour growth
PARP inhibition in MX-1 tumours ([10]; 24 h after single dose 50 mg kg−1 i.p.): > 55%
PARP inhibition in MX-1 tumours ([10]; 24 h after single dose 150 mg kg−1 p.o.): > 80%
PARP inhibition in MX-1 tumours ([10]; 3 days after 150 mg kg−1): 87–92%
PARP inhibition in MX-1 tumours ([10]; 7 days after 150 mg kg−1): 44–74%
PARP inhibition in livers [11]: not in the livers; also recorded: recovered completely within 24 h
rucaparib lost by efflux in the first 5–10 min (SW620 cells; SW620 cells after 30-min pulse with 400 nM): up to 50%
intracellular concentration (SW620 cells; SW620 cells exposed to 400 nM [14C]rucaparib, steady state): > 10 µM
time to steady-state intracellular level (SW620 cells; [15]): ≤ 30 min
Vmax of rucaparib uptake (SW620 cells; SW620 cells, 30 min exposure, mean and s.d. of three independent experiments): 469±22 pmol per 10^6 cells per 10 min
uptake with sodium buffer replaced by potassium buffer (SW620 cells; SW620 cells, transport buffer): reduced uptake slightly
uptake with sodium replaced by choline (SW620 cells; SW620 cells, transport buffer): no effect
half-life [12]: 20 min
PARP activity 1 week after drug removal [13, 17]: still below baseline
persistence of PARP inhibition after pulse [13, 17]: 72 h
remaining activity at 0.4 µM ([13]; SW-620, read-out: PARP activity, % of control): 35 ± 12%
inhibition at 0.4 µM ([13]; read-out: PARP inhibition, human cancer cell lines (SW620, Capan-1, MX-1), for at least 72 h after 30-min pulse of 400 nM): ≥ 50%
PARP activity below baseline 1 week after initial exposure ([13]; where measured, 30-min pulse): ≥ 30%
dose linearity ([4]; mice): apparent dose linearity
rucaparib in tumour at 3 days ([4]; oral rucaparib): still detectable in most mice
time at which parent drug detectable in plasma ([4]; single dose 10 mg kg−1 i.p., all three mice per group): 30 min
time up to which parent drug detectable in plasma ([4]; single dose 50–150 mg kg−1 p.o., all three mice per group): up to 4 h
weight loss at nadir (MX-1 xenografts [14]): ≤ 4%

O=C(c1cc(Cc2n[nH]c(=O)c3ccccc23)ccc1F)N1CCN(C(=O)C2CC2)CC1 [olaparib]
efficacy against MX-1 xenografts (MX-1 xenografts [2]; 100 mg kg−1 daily for 28 days): completely ineffective
